Measured values: PMC9684503 (Communications Biology, 2022)
Where “and” joins values, the source holds several entries; their conditions need not be identical. Equal values may be shown once.

Assays:
[1] = target: T1, human VMAT2 (Homo sapiens, UniProt Q05940); test: FFN206 uptake assay in transfected Hek293 cells; format: cell-based; settings: Table S1, substrate uptake assays in transfected Hek293 cells
T1 construct: expressed in transfected cells; host or cells: Hek293 cells, transient

[2] = target: T2, VMAT2 (Rattus norvegicus, UniProt Q01827); test: [3H]-DTBZ competition assay in Hek293 cells expressing VMAT2;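 as to all read-outs here: HEK293 cells transfected with VMAT2, pretreated 30 min with compound, then given 5 nM [3H]-DTBZ for 20 min at 37 °C, bound label read by scintillation counting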; settings: for [3H]-DTBZ binding relative to no compound (=1), replicate samples: Fig. 3b source data
Procedure: (§1) We preincubated cells expressing VMAT2 with 50 μM compounds and measured [^3H]-DTBZ binding (5 nM) to the sample (Fig. 3a). […] Hek293 cells were grown and transfected with pcDNA3.1 VMAT2-His as described above. Two days after transfection, cells were harvested, washed and transferred to 96 well MultiScreen FB filter plates (Millipore). […] Cells were washed 3 times with ice cold PBS and 50 µl Ultima Gold LLL (PerkinElmer) was added to each well. […] After a 20 min incubation at 37 °C, cells were washed and [^3H] scintillation counting was performed as described above.

[3] = target: T3, human VMAT1 (Homo sapiens, UniProt P54219); test: FFN206 uptake assay in transfected Hek293 cells; format: cell-based; settings: Table S1, substrate uptake assays in transfected Hek293 cells
T3 construct: expressed in transfected cells; host or cells: Hek293 cells, transient
T3 sequence (P54219 1-525): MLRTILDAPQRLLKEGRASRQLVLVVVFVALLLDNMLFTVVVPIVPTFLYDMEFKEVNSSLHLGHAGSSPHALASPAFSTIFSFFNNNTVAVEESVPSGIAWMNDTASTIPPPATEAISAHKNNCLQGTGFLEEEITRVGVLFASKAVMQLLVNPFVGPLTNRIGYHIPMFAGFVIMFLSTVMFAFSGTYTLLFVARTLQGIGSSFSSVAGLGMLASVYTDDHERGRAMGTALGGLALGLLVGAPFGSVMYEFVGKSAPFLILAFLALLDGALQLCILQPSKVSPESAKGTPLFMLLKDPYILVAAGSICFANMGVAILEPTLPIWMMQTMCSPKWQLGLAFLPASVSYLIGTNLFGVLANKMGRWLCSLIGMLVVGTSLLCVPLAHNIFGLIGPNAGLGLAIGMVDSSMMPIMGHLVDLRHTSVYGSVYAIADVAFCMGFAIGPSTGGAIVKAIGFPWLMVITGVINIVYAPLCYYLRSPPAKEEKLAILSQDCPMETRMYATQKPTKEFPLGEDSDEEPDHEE

[4] = target: T2, VMAT2; settings: hek293 cells, 50 µM
Procedure: as §1

[5] = target: rat VMAT2 Q143A (Rattus norvegicus, UniProt Q01827, Q143A); test: FFN206 uptake assay, VMAT2 mutant
Procedure: (§2) For activity assays, [^3H]-DTBZ and [^3H]-SMT binding and competition assays (see section below), several VMAT2 mutants were prepared. […] In addition, a selection of rVMAT2 mutants carrying mutations designed from binding modes identified by docking and MD-simulation was prepared in a pcDNA3.1 rVMAT2-Strep tag II plasmid.

[6] = target: rat VMAT2 Y434A (Rattus norvegicus, UniProt Q01827, Y434A); test: FFN206 uptake assay, VMAT2 mutant
Procedure: as §2

[7] = target: T4, rat VMAT2-His (Rattus norvegicus, UniProt Q01827); test: Differential scanning fluorimetry (DSF) with CPM dye: change of melting temperature of purified VMAT2; format: binding
T4 construct: The ORF of rat VMAT2 was subcloned into a pFastBac vector; His; made in house; host or cells: Sf9 insect cells (baculovirus)
How it was run: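 Rat VMAT2-His from Sf9 baculovirus cells, purified by IMAC and SEC in DDM/CHS micelles, was screened by CPM-dye DSF over a 25–95 °C ramp at 2 °C/min. Tm was taken from the second derivative of the melting curve. Hits were validated in triplicate at 200 μM, with ΔTm > 5× SD as the cutoff.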

[8] = target: rat VMAT2 P314A (Rattus norvegicus, UniProt Q01827, P314A); test: FFN206 uptake assay, VMAT2 mutant
Procedure: as §2

[9] = target: rat VMAT2 (Rattus norvegicus, UniProt Q01827); test: FFN206 uptake assay in transfected Hek293 cells
Chain of rat VMAT2 (Q01827 whole entry): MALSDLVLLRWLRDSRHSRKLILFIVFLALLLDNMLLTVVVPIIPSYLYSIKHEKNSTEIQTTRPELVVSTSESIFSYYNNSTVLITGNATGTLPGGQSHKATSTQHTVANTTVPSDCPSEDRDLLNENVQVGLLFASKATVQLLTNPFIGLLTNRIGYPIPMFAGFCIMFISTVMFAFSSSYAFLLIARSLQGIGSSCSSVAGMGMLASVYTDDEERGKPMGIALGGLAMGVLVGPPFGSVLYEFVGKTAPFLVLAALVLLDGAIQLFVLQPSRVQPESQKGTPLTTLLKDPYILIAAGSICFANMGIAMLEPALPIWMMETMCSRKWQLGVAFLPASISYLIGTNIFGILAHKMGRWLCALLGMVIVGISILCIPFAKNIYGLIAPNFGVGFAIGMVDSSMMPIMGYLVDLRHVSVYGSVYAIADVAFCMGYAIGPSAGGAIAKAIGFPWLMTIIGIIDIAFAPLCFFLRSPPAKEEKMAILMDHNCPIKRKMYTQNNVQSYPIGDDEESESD

T4 sequence (Q01827 whole entry): as above
T2 sequence (Q01827 whole entry): as above
Chain of rat VMAT2 Y434A (Q01827 whole entry Y434A): as the sequence (Q01827 whole entry) above, with Y434A counted along it
Chain of rat VMAT2 P314A (Q01827 whole entry P314A): as the sequence (Q01827 whole entry) above, with P314A counted along it
Chain of rat VMAT2 Q143A (Q01827 whole entry Q143A): as the sequence (Q01827 whole entry) above, with Q143A counted along it
T1 sequence (Q05940 whole entry): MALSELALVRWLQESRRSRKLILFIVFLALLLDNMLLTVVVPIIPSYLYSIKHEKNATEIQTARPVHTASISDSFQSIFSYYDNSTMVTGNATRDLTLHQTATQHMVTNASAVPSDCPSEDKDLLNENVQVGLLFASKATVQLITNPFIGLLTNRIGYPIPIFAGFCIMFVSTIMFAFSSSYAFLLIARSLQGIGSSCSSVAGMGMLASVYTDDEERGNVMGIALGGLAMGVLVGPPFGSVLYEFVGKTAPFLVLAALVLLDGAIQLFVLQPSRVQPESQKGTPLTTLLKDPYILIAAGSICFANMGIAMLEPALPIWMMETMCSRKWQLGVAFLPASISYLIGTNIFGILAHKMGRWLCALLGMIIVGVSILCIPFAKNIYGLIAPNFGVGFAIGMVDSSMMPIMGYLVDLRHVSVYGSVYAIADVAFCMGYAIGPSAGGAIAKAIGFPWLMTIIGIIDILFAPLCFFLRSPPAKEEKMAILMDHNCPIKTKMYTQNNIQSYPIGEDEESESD

OCc1cc(C(O)CNCCCCCCOCCCCc2ccccc2)ccc1O (stereo not shown) [Salmeterol]
IC50 [1]: 35 ± 16 nM
effect on [3H]-DTBZ binding compared with DMSO control (one-way ANOVA, p < 0.001) ([2]; 50 μM compound): statistically significantly effect
[3H]-DTBZ binding relative to no compound (=1), replicate samples ([2]; compound 0.0017): 0.6032 and 1.156 and 0.8878 and 0.838
[3H]-DTBZ binding relative to no compound (=1), replicate samples ([2]; compound 0.0051): 0.6168 and 0.8711 and 1.077 and 0.9012
[3H]-DTBZ binding relative to no compound (=1), replicate samples ([2]; compound 0.0152): 0.7563 and 1.108 and 1.007
[3H]-DTBZ binding relative to no compound (=1), replicate samples ([2]; compound 0.0457): 0.5988 and 0.6867 and 0.7774 and 0.6452
[3H]-DTBZ binding relative to no compound (=1), replicate samples ([2]; compound 0.1372): 0.4074 and 0.4854 and 0.3736 and 0.3232
[3H]-DTBZ binding relative to no compound (=1), replicate samples ([2]; compound 0.4115): 0.02476 and 0.03862 and 0.09845 and 0.04206
[3H]-DTBZ binding relative to no compound (=1), replicate samples ([2]; compound 1.2346): 0.01432 and 0.02317 and 0.00733 and 0.04172
[3H]-DTBZ binding relative to no compound (=1), replicate samples ([2]; compound 3.7037): 0.02156 and 0.02614 and 0.01787 and 0.1343
[3H]-DTBZ binding relative to no compound (=1), replicate samples ([2]; compound 11.1111): -0.04565 and 0.05011 and -0.00482 and -0.01021
[3H]-DTBZ binding relative to no compound (=1), replicate samples ([2]; compound 33.3333): -0.01836 and -0.0105 and -0.00518 and -0.00848
[3H]-DTBZ binding relative to no compound (=1), replicate samples ([2]; compound 100.0000 (μM per methods)): 0.02729 and -0.01624 and -0.00322 and -0.00727
IC50 [3]: 23 ± 2 nM
activity [4]: 0.37 ± 2.83%
IC50 [5]: 148 ± 33 nM
IC50 [6]: 126 ± 87 nM
ΔTm ([7]; Table 1, DSF screening, mean ± SD of triplicates): 9.71 ± 0.22 oC
ΔTm at 12 µM ([7]; Table S2 dose response, compound 0,12 µM, read-out: ΔTm): 5.78 °C
ΔTm at 37 µM ([7]; Table S2 dose response, compound 0,37 µM, read-out: ΔTm): 6.25 °C
ΔTm at 10 µM ([7]; Table S2 dose response, compound 10 µM, read-out: ΔTm): 7.48 °C
ΔTm at 30 µM ([7]; Table S2 dose response, compound 30 µM, read-out: ΔTm): 7.9 °C
ΔTm at 90 µM ([7]; Table S2 dose response, compound 90 µM, read-out: ΔTm): 8.7 °C
ΔTm at 270 µM ([7]; Table S2 dose response, compound 270 µM, read-out: ΔTm): 10.5 °C
ΔTm at 11 µM ([7]; Table S2 dose response, compound 1,11 µM, read-out: ΔTm): 6.55 °C
ΔTm at 33 µM ([7]; Table S2 dose response, compound 3,33 µM, read-out: ΔTm): 7.04 °C
IC50 [8]: 234 ± 65 nM
IC50 [9]: 53 ± 28 nM
VMAT2-specific FFN206 uptake relative to DMSO (=1), replicate samples ([9]; Fig. 2a source data, 25 μM compound): 0.01652 and -0.1153 and -0.05311 and -0.0161
FFN206 uptake relative to no compound (=1), replicate samples ([9]; Fig. 2b/2c source data, compound 0.0152 μM): 0.8683 and 0.9316 and 0.8545 and 0.8755 and 0.7872 and 0.8834 and 0.9116 and 0.9363
FFN206 uptake relative to no compound (=1), replicate samples ([9]; Fig. 2b/2c source data, compound 0.1372 μM): 0.4384 and 0.5181 and 0.4428 and 0.5409 and 0.2594 and 0.3377 and 0.3056 and 0.4141
FFN206 uptake relative to no compound (=1), replicate samples ([9]; Fig. 2b/2c source data, compound 0.4115 μM): 0.2986 and 0.3445 and 0.2962 and 0.3132 and 0.1258 and 0.1847 and 0.149 and 0.1946
FFN206 uptake relative to no compound (=1), replicate samples ([9]; Fig. 2b/2c source data, compound 1.2346 μM): 0.2192 and 0.2619 and 0.2463 and 0.2625 and -0.00094 and 0.06663 and 0.05805 and 0.07997
FFN206 uptake relative to no compound (=1), replicate samples ([9]; Fig. 2b/2c source data, compound 3.7037 μM): 0.2883 and 0.2538 and 0.257 and 0.1826 and 0.05594 and 0.1039 and 0.07279 and 0.105
FFN206 uptake relative to no compound (=1), replicate samples ([9]; Fig. 2b/2c source data, compound 11.1111 μM): 0.2315 and 0.2175 and 0.2018 and 0.1642 and 0.02429 and 0.09314 and 0.05353 and 0.1229
FFN206 uptake relative to no compound (=1), replicate samples ([9]; Fig. 2b/2c source data, compound 100.0000 μM): 0.2045 and 0.2463 and 0.2058 and 0.2286 and -0.0325 and 0.06428 and 0.00994 and 0.07
FFN206 uptake relative to no compound (=1), replicate samples ([9]; Fig. 2c source data, compound 0.0017 μM): 0.9528 and 0.9756 and 1.008 and 0.9844
